Here are results for five molecules from BindingDB's records for doi:10.1080/14756360802608351 (Ataturk University, 2009).

The assay deals with Serum paraoxonase/arylesterase 1 (Homo sapiens, UniProt P27169). Nature of the assay: Paraoxonase Activity Assay. Conditions: pH 10.5; 25 °C. From the text:
The enzyme assay was based on the estimation of p-nitrophenol at 412nm. The molar extinction coefficient of p-nitrophenol was used to calculate enzyme activity.

As usually defined, the pIC50 is the IC50 on a negative log10 scale, so that one unit is a factor of ten. A high value points to a small IC50. As a reminder, the pKi is the Ki on a negative log10 scale, so that one unit is a factor of ten. Higher therefore signals a small Ki.

pIC50, pKi: −log10 of the molar value.

Chain of Serum paraoxonase/arylesterase 1 (P27169 whole entry): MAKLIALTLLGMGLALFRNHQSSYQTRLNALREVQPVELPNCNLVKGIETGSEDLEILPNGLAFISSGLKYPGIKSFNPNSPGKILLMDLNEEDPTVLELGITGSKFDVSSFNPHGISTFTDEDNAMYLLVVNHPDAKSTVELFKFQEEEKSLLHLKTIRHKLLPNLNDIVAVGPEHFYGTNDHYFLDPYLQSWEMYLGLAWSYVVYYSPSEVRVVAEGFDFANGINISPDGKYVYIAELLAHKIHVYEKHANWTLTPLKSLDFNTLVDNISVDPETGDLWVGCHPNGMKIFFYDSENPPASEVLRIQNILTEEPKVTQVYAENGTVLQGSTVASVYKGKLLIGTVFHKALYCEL

With `CN1C(C(=O)Nc2ccccn2)=C(O)c2sc(Cl)cc2S1(=O)=O` [Lornoxicam], the negative logarithm of the IC50 (pIC50) is 3.87 and the negative-log Ki (pKi) is 5.05.
`CCCC1CC(C(=O)NC(C(C)O)C2OC(SC)C(O)C(O)C2O)N(C)C1` (stereo not given) [Lincomycine]: the pIC50 is 2.02 and the pKi is 1.95.
Turning to `CC(C(=O)O)c1cccc(C(=O)c2ccccc2)c1` (stereo not given) [2-(3-benzoylphenyl)propanoic acid], the pIC50 was 2.21 and the negative-log Ki (pKi) was 1.89.
As to `CN1C(C(=O)Nc2ccccn2)=C(O)c2sccc2S1(=O)=O` [Tenoxicam], the pIC50 is 3.47 and the pKi is 3.51.
In turn, `COc1ccc2c(c1)c(CC(=O)O)c(C)n2C(=O)c1ccc(Cl)cc1` [indometacin] showed a pIC50 of 3.71 and a pKi of 4.01.
